The values that follow come from article PMC5777153 (Cell chemical biology, 2017).

In this experiment the test system is human kinome. Description: KinomeScan competitive binding assay across the kinome. The following applies: 10 μM.

`COc1cc2c(Oc3ccc(NC(=O)C4(C(=O)Nc5ccc(F)cc5)CC4)cc3F)ccnc2cc1OCCCN1CCOCC1` [foretinib]: the “number of kinases bound (percent of control value of 35 or less)” value came to 133 kinases.
